We go through one substance from US7572436B1, “Thionin as an antineoplastic and immunostimulant” (priority 2000, dated 2009).

“And” between values parts separate entries of the source, which are not always exact repeats. Identical values can stand only once. Like-named read-outs stand apart in the source and are kept apart here. Where no end group is shown, it is not given here. Where only a bound is given, the exact number is not on record here.

One data set concerns IL-1. Put plainly: ELISA of IL-1 production by splenocytes. Conditions: 48 hours, PT 0.05 μg/ml. The format is cell-based, Balb C murine. On the procedure:
Identical plates are set up for an immunoassay and a mitogen assay. Mouse splenocytes and immuno-stimulating drugs are plated in duplicate wells (immunoassay) and triplicate wells (mitogen assay) in 96-well microplates as described above. The incubation at 37° C. in a humidified 5% CO2 incubator may vary from three to five days. At the end of the activation/proliferation period, the two identical plates are harvested as an immunoassay for cytokines or harvested as a mitogen assay (to which ^3H-thymidine has been added approximately 16-18 hours earlier).
Immunoassay kits used to detect IL-1β, IL-2, and IL-12 were the murine Quantikine M™ kits produced by R&D Systems (Minneapolis, Minn.). The general procedure is the same for all interleukin cytokines, and is described in the instructions provided by the manufacturer. All reagents are used at room temperature, and are prepared according to kit instructions.
The immunoassay plate is centrifuged at 200×g to pellet all cells. A 50 μl aliquot of Assay Diluent is first added to the center of each special enzyme-coated well supplied with the kit. Next, 50 μl of standard, control or test sample of supernatant from the immunoassay incubation plate is added to each well. This is incubated at room temperatures for two hours.
Liquid is aspirated from the wells, and the wells are washed five times with surfactant diluted 1:25 with distilled water. A 100 μL aliquot of Conjugate is added to each well and incubated two hours at room temperature. The wells are again aspirated and each well washed five times.
One hundred microliters of Substrate Solution are added to each well and incubated 30 minutes at room temperature. Stop Solution (100 μl) is then added to each well. The color change is light blue to yellow (activity). The plate is read for absorbence at 450 nm and at 540 nm for background readings.
To calculate the results, the duplicate readings for each pair of standard, control, and test samples are averaged and the average background optical density readings are subtracted. A standard curve is constructed for the cytokine by plotting the mean absorbence for each standard on the y-axis against the concentration on the x-axis and drawing a best-fit curve. Picograms of cytokine are determined from the standard curve. Mitogenic activity determined from the cpm of ^3H-thymidine is compared to the concentrations of cytokine in the experimental samples in the corresponding immunoassay.
One measure of macrophage activation is the production of the cytokine interleukin-1 (IL-1) and also interleukin-12 (IL-12). Incubation of 3×10^5 Balb C murine spleen cells with 0.05 μg/ml PT was performed for 48 hours. The supernatant fluid was assayed with commercial ELISA kits for IL-1 and IL-12. […] Some experiments gave less […] and some more. This is likely a reflection of the state of the immune system in the experimental mice. The addition of KLH, an effective antigen, increased both IL-1 and IL-12 production, and the addition of PT along with the KLH further increased the production of these cytokines.

A short description of data set [1]: Toxic effect of PT on mice in vivo (LD50). The arrangement: species or system mouse.
In data set [2] the test system is membrane structure of cells or phospholipid vesicles. Conditions: reported in the literature; begin around this value and continue up to and above 20 μg/ml; cited from earlier work.
The subject of data set [3] is murine Balb/C splenocytes. Put plainly: Binding of ^125I-labeled PT to mouse spleen cells. The note with it: for Kd: ^125I-PT. From the text:
Splenocytes are isolated from the spleens of selected mice (as described herein), treated to remove red cells, resuspended in PBS after washing, and counted using Trypan Blue exclusion. The average yield of spleen cells (splenocytes) from one spleen is 1−1.5×10^8 cells. A desired concentration of cells per sample tube in the binding assay is more than 5×10^6 cells/ml.
The protocol for the binding assay has been previously described (Vernon and Rogers, Toxicon 30:711-721, 1992). Reactions were carried out in a total volume of 400 μl in each microcentrifuge tube (160 μl PBS with ^125I-labeled PT at varying concentrations with 240 μl of spleen cell suspensions).
A total of 10^7 spleen cells were placed in each of the reaction microfuge tubes, and allowed to equilibrate at room temperature for five minutes. To each tube was added radiolabeled thionin (e.g., ^125I-PT) in amounts from 0.1 to 20 μg/ml. The radiolabeled PT used in the experiments contained approximately 10^6 counts/minute (0.3 μCi) per μg PT. The suspension was incubated at room temperature for 10 minutes, then placed on ice for an additional 10 minutes. The tubes were then centrifuged to pellet the cells.
The radioactivity in the supernatant fluid was determined from an aliquot removed from the tube. The plastic pipette tip used to transfer the aliquot was also put in the vial and counted in a gamma ray counter along with the transferred aliquot of the supernatant fluid, since this tip may absorb PT from the aliquot during transfer. The radioactivity amount determined represents the “free” PT, not bound to a cell.
After removal of the entire supernatant, the sedimented cells were washed twice in PBS, and the entire final washed suspension of cells was transferred to a vial for radioactivity counting. As with measurement of radioactivity in the supernatant, the pipette tip used to transfer the cell sample was added to the vial to include any PT that might be bound to the plastic tip. This measures the total “bound” PT.
Non-specific binding was determined in the presence of a 100-fold excess of non-radioactive iodinated PT. The binding data reported were obtained by subtracting the non-specific from the total binding. Triplicate assays were performed for each concentration of PT employed.

As to “Pyrularia thionin (KSCCRNTWARNCYNVCRLPGTISREICAKKCDCKIISGTTCPSDYPK; ends and bridges not checked; also: labeled with 125I) [PT]”, the IL-1 in the data set on IL-1 (Experiment 1, KLH 10 μg/ml, control 3.9) came out at 6.0 ± 0.2 pg/mL; in the data set with IL-1 (Experiment 3, control 2), 2.4 ± 0 pg/mL; in the data set with IL-1 (Experiment 4, KLH (20 mg/ml), control 9), 14 ± 0.9 pg/mL. Further, in data set [1] (for a 20-gram mouse), the LD50 was 30 µg. For the same substance, in data set [1] (versus 3 μg PT), the “LD50 relative to the amount with maximal protective (immunostimulatory) effect” value was “ten times greater”. The “concentrations required to induce changes in the membrane structure of cells or phospholipid vesicles” value in data set [2] is ≥ 1000 ng/mL. Also, the Kd in data set [3] (PT up to 1 μg/ml, read-out: dissociation constant, high affinity binding site) was 65 nM and ~65 nM; in data set [3] (PT up to 20 μg/ml, read-out: dissociation constant, low affinity binding site), 1600 nM and ~1600 nM. For the same substance, in data set [3] (murine spleen cells), the “number of sites per cell, high affinity site” value is reported as 1.4×10^5. Also, the “number of sites per cell, low affinity site” value in data set [3] (murine spleen cells) is 1×10^6.
